Data as given in patent US20250163057A1, “DCN-1 MODULATING COMPOUNDS AND METHODS OF USE THEREOF” (Cellarity, Inc., priority 2023, published 2025).
Like-named read-outs stand apart in the source and are kept apart here.

How the values were obtained:
[1] = target: DCN1 (DCUND1) protein PONY domain (Homo sapiens (Human), UniProt Q96GG9); assay: TR-FRET assay, DCN1 binding with FAM-labeled probe
Method in brief: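 Tb-DCN1 PONY domain (E. coli, biotin/streptavidin-Tb); FAM-labelled non-covalent inhibitor probe; TritonX buffer, 200 mM NaCl; 5 nM DCN1 + 20 nM probe or 0.31 nM DCN1 + 900 nM total probe; 0.1% DMSO; TR-FRET read 1, 5, 24 hrs.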

DCN1 protein = DCN1 protein (Homo sapiens (Human), UniProt Q96GG9); assay: Intact Protein MS Analysis with the RapidFire-TOF System (covalent adduct formation); assay type: binding; settings: MS Emax; 400 nM DCN1, 3 hours at room temperature
Method in brief: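 Tag-cleaved human DCN1 (400 nM) expressed in E. coli, in 25 mM Tris-HCl, 200 mM NaCl, 1 mM DTT, was incubated with 11 compound concentrations for 3 h at room temperature and quenched with 0.2% formic acid. Intact-protein Q-TOF MS with deconvolution detected the compound adduct mass.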

[2] = system: fetal hemoglobin gene HBG1; assay: HBG1 Nanostring Assay in CD34+ HSPC erythroid differentiation culture; assay type: cell-based, human; settings: for EC50: HBG1 induction, Day10 of erythroid differentiation; for Nanostring Ymax obs (%): relative to a control compound (C1)
Method in brief: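 CD34+ HSPCs were dosed from day −2 (0.1% DMSO) through two-phase erythroid differentiation (EPO, transferrin, SCF, IL-3, insulin; IL-3 removed from day 7) at 37° C, 5% CO2. Day-10 lysates of 100K cells were hybridized at 67° C for 22 h for nCounter counting, normalized to ERCC and housekeeping controls. EC50 and Ymax were derived, with Ymax relative to a control compound.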

[3] = system: Cullin-3 (CUL3) neddylation; assay: AlphaLISA assay for Cullin-3 (CUL3) neddylation in TF 1 cells; assay type: cell-based; settings: 3 hours treatment
Method in brief: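 TF 1 cells in unsupplemented IMDM treated with compound concentrations for 3 h, then lysed. CUL3 neddylation detected by AlphaLISA (biotinylated anti-NEDD8, anti-CUL3 acceptor beads overnight, streptavidin donor beads 1 h); normalized to vehicle (0%) and 1 μM DI-1548 (100%), IC50 from Hill fits.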

[4] = 24 hr after treatment with compound, read-out: TR FRET IC50 24 hr
[5] = TR FRET IC50 1 hr (nM), 1 hr after treatment with compound
[6] = read-out: TR FRET IC50 1 hr, 1 hr after treatment with compound

Chain of DCN1 (DCUND1) protein PONY domain (Q96GG9 60-248): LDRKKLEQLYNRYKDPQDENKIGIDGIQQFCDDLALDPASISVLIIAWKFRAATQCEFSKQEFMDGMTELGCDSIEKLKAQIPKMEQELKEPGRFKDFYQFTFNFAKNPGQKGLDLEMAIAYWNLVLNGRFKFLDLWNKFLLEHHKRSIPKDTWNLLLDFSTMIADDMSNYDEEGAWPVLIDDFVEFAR
Chain of DCN1 protein (Q96GG9 whole entry): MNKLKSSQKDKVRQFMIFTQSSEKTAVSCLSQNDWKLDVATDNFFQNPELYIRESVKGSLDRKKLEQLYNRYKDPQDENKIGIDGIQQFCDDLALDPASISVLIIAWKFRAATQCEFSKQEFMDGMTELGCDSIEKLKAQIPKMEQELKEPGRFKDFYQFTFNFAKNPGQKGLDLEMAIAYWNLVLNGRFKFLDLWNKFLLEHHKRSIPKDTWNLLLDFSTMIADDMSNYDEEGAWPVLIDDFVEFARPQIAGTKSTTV

CCN1C(=O)[C@@H](NC(=O)c2cccc(C(F)(F)F)c2)[C@H](c2ccc(F)cc2)c2c(CNC(=O)/C=C(\C)C(=O)OC)nn(-c3ccccc3)c21 [Compound I-104] was tested, and the IC50 [1, 4] was 200 to 1000 nM, the IC50 [1, 5] was 200 to 1000 nM and the “% Adduct Formation” value (DCN1 protein) was “+ (MS Emax % adduct formation greater than or equal to 0.0 and less than or equal to 30.0)”. For the same compound, the EC50 ([2]; Homo sapiens, 240 h) was > 1 µM, the “Nanostring Ymax obs (%)” value [2] was “++ (Nanostring Ymax greater than 50.0 and less than or equal to 100.0)” and the IC50 ([3]; Homo sapiens, TF-1, 3 h) was 0.1 to 1 µM.

CCN1C(=O)[C@@H](NC(=O)c2cccc(C(F)(F)F)c2)[C@H](c2ccc(F)cc2)c2c(CNC(=O)C3=C(C(=O)OC)CC3)nn(-c3ccccc3)c21 (racemic) [Compound I-97] was tested, and the IC50 [1, 4] was 200 to 1000 nM, the IC50 [1, 6] was ≤ 200 nM and the “% Adduct Formation” value (DCN1 protein) was “+ (MS Emax % adduct formation greater than or equal to 0.0 and less than or equal to 30.0)”. The EC50 ([2]; Homo sapiens, 240 h) was 0.1 to 1 µM, the “Nanostring Ymax obs (%)” value [2] was “++ (Nanostring Ymax greater than 50.0 and less than or equal to 100.0)” and the IC50 ([3]; Homo sapiens, TF-1, 3 h) was ≤ 0.1 µM.

For CCN1C(=O)[C@@H](NC(=O)c2cccc(C(F)(F)F)c2)[C@@H](c2ccc(F)cc2)c2c(C(=O)N3CCNC[C@@H]3C#N)nn(C3CCOCC3)c21 [Compound I-364], the IC50 [1, 4] was ≤ 200 nM, the IC50 [1, 6] was ≤ 200 nM and the “% Adduct Formation” value (DCN1 protein) was “+++ (MS Emax % adduct formation greater than 80.0 and less than or equal to 100.0)”. For the same compound, the EC50 ([2]; Homo sapiens, 240 h) was ≤ 0.1 µM, the “Nanostring Ymax obs (%)” value [2] was “++ (Nanostring Ymax greater than 50.0 and less than or equal to 100.0)” and the IC50 ([3]; Homo sapiens, TF-1, 3 h) was ≤ 0.1 µM.

For CCN1C(=O)[C@@H](NC(=O)c2cccc(C(F)(F)F)c2)[C@@H](c2ccc(F)cc2)c2c(CNC(=O)CC#N)nn(-c3ccccc3)c21 (racemic) [Compound I-147, rac-N-((4R,5R)-3-((2-cyanoacetamido)methyl)-7-ethyl-4-(4-fluorophenyl)-6-oxo-1-phenyl-4,5,6,7-tetrahydro-1H-pyrazolo[3,4-b]pyridine-5-yl)-3-(trifluoromethyl)benzamide], the IC50 [1, 4] was 200 to 1000 nM, the IC50 [1, 5] was 1000 to 3000 nM and the “% Adduct Formation” value (DCN1 protein) was “+ (MS Emax % adduct formation greater than or equal to 0.0 and less than or equal to 30.0)”. For the same compound, the EC50 ([2]; Homo sapiens, 240 h) was > 1 µM, the “Nanostring Ymax obs (%)” value [2] was “+ (Nanostring Ymax greater than or equal to 0.0 and less than or equal to 50.0)” and the IC50 ([3]; Homo sapiens, TF-1, 3 h) was 0.1 to 1 µM.

C=C(CN1CCOCC1)C(=O)N[C@H](C)c1nn(-c2ccccc2)c2c1[C@H](c1ccc(F)cc1)[C@H](NC(=O)c1cccc(C(F)(F)F)c1)C(=O)N2CC (mixture of isomers) [Compound I-8] was tested, and the IC50 [1, 4] was ≤ 200 nM, the IC50 [1, 6] was ≤ 200 nM and the “% Adduct Formation” value (DCN1 protein) was “+ (MS Emax % adduct formation greater than or equal to 0.0 and less than or equal to 30.0)”. For the same compound, the EC50 ([2]; Homo sapiens, 240 h) was > 1 µM, the “Nanostring Ymax obs (%)” value [2] was “++ (Nanostring Ymax greater than 50.0 and less than or equal to 100.0)” and the IC50 ([3]; Homo sapiens, TF-1, 3 h) was 0.1 to 1 µM.

With C=CS(=O)(=O)N(C)Cc1nn(-c2ccccc2)c2c1[C@H](c1ccc(F)cc1)[C@H](NC(=O)c1cccc(C(F)(F)F)c1)C(=O)N2CC (racemic) [Compound I-1] the IC50 [1, 4] was ≤ 200 nM, the IC50 [1, 6] was ≤ 200 nM and the “% Adduct Formation” value (DCN1 protein) was “+++ (MS Emax % adduct formation greater than 80.0 and less than or equal to 100.0)”. The EC50 ([2]; Homo sapiens, 240 h) was > 1 µM, the “Nanostring Ymax obs (%)” value [2] was “++ (Nanostring Ymax greater than 50.0 and less than or equal to 100.0)” and the IC50 ([3]; Homo sapiens, TF-1, 3 h) was ≤ 0.1 µM.

C=C(C)C(=O)Nc1nn(-c2ccccc2)c2c1[C@H](c1ccc(F)cc1)[C@H](NC(=O)c1cccc(C(F)(F)F)c1)C(=O)N2CC (racemic) [Compound I-26] was tested, and the IC50 [1, 4] was ≤ 200 nM, the IC50 [1, 6] was ≤ 200 nM and the “% Adduct Formation” value (DCN1 protein) was “+ (MS Emax % adduct formation greater than or equal to 0.0 and less than or equal to 30.0)”. The EC50 ([2]; Homo sapiens, 240 h) was 0.1 to 1 µM, the “Nanostring Ymax obs (%)” value [2] was “++ (Nanostring Ymax greater than 50.0 and less than or equal to 100.0)” and the IC50 ([3]; Homo sapiens, TF-1, 3 h) was 0.1 to 1 µM.

In the case of CCN1C(=O)[C@@H](NC(=O)c2cccc(C(F)(F)F)c2)[C@@H](c2ccc(F)cc2)c2c(CN(C)C#N)nn(-c3ccccc3)c21 [Compound I-129], the IC50 [1, 4] is reported as ≤ 200 nM, the IC50 [1, 5] is reported as 200 to 1000 nM and the “% Adduct Formation” value (DCN1 protein) is reported as “+++ (MS Emax % adduct formation greater than 80.0 and less than or equal to 100.0)”. The EC50 [2] was > 1 µM, the “Nanostring Ymax obs (%)” value [2] was “+ (Nanostring Ymax greater than or equal to 0.0 and less than or equal to 50.0)” and the IC50 [3] was 0.1 to 1 µM.

In the case of C=C(CN1CCC(F)(F)C1)C(=O)NCc1nn(-c2ccccc2)c2c1[C@H](c1ccc(F)cc1)[C@@H](NC(=O)c1cccc(C(F)(F)F)c1)C(=O)N2CC (racemic) [Compound I-32], the IC50 [1, 4] is reported as ≤ 200 nM, the IC50 [1, 6] is reported as ≤ 200 nM and the “% Adduct Formation” value (DCN1 protein) is reported as “+ (MS Emax % adduct formation greater than or equal to 0.0 and less than or equal to 30.0)”. The EC50 ([2]; Homo sapiens, 240 h) was 0.1 to 1 µM, the “Nanostring Ymax obs (%)” value [2] was “++ (Nanostring Ymax greater than 50.0 and less than or equal to 100.0)” and the IC50 ([3]; Homo sapiens, TF-1, 3 h) was ≤ 0.1 µM.

In the case of CCN1C(=O)[C@H](NC(=O)c2cccc(C(F)(F)F)c2)[C@H](c2ccc(F)cc2)c2c(CN(C)C#N)nn(-c3ccccc3)c21 [Compound I-20], the IC50 [1, 4] is reported as 1000 to 3000 nM, the IC50 [1, 5] is reported as 1000 to 3000 nM and the “% Adduct Formation” value (DCN1 protein) is reported as “++ (MS Emax % adduct formation greater than 30.0 and less than or equal to 80.0)”. The EC50 ([2]; Homo sapiens, 240 h) was > 1 µM, the “Nanostring Ymax obs (%)” value [2] was “+ (Nanostring Ymax greater than or equal to 0.0 and less than or equal to 50.0)” and the IC50 ([3]; Homo sapiens, TF-1, 3 h) was > 1 µM.

C/C=C/C(=O)Nc1nn(-c2ccccc2)c2c1[C@H](c1ccc(F)cc1)[C@H](NC(=O)c1cccc(C(F)(F)F)c1)C(=O)N2CC (racemic) [Compound I-62] was tested, and the IC50 [1, 4] was 200 to 1000 nM, the IC50 [1, 6] was ≤ 200 nM and the “% Adduct Formation” value (DCN1 protein) was “+ (MS Emax % adduct formation greater than or equal to 0.0 and less than or equal to 30.0)”. The EC50 ([2]; Homo sapiens, 240 h) was > 1 µM, the “Nanostring Ymax obs (%)” value [2] was “+ (Nanostring Ymax greater than or equal to 0.0 and less than or equal to 50.0)” and the IC50 ([3]; Homo sapiens, TF-1, 3 h) was 0.1 to 1 µM.

In the case of CCN1C(=O)[C@@H](NC(=O)c2cccc(C(F)(F)F)c2)[C@@H](c2ccc(F)cc2)c2c(CN(C)C(=O)/C=C/CN(C)C)nn(-c3ccccc3)c21 [Compound I-117], the IC50 [1, 4] is reported as 200 to 1000 nM, the IC50 [1, 5] is reported as 200 to 1000 nM and the “% Adduct Formation” value (DCN1 protein) is reported as “+ (MS Emax % adduct formation greater than or equal to 0.0 and less than or equal to 30.0)”. For the same compound, the EC50 ([2]; Homo sapiens, 240 h) was > 1 µM, the “Nanostring Ymax obs (%)” value [2] was “+ (Nanostring Ymax greater than or equal to 0.0 and less than or equal to 50.0)” and the IC50 ([3]; Homo sapiens, TF-1, 3 h) was > 1 µM.

For C=C(C(=O)O)c1nn(-c2ccccc2)c2c1[C@H](c1ccc(F)cc1)[C@H](NC(=O)c1cccc(C(F)(F)F)c1)C(=O)N2CC (racemic) [Compound I-53, rac-2-((4R,5R)-7-ethyl-4-(4-fluorophenyl)-6-oxo-1-phenyl-5-(3-(trifluoromethyl)benzamido)-4,5,6,7-tetrahydro-1H-pyrazolo[3,4-b]pyridine-3-yl)acrylic acid], the IC50 [1, 4] was 200 to 1000 nM, the IC50 [1, 5] was 1000 to 3000 nM and the “% Adduct Formation” value (DCN1 protein) was “++ (MS Emax % adduct formation greater than 30.0 and less than or equal to 80.0)”. For the same compound, the EC50 ([2]; Homo sapiens, 240 h) was > 1 µM, the “Nanostring Ymax obs (%)” value [2] was “+++ (Nanostring Ymax greater than 100.0)” and the IC50 ([3]; Homo sapiens, TF-1, 3 h) was 0.1 to 1 µM.

For CCN1C(=O)[C@@H](NC(=O)c2cccc(C(F)(F)F)c2)[C@@H](c2ccc(F)cc2)c2c(CNC(=O)C(C)(C)C#N)nn(-c3ccccc3)c21 (racemic) [Compound I-7, rac-N-((4R,5R)-3-((2-cyano-2-methylpropanamido)methyl)-7-ethyl-4-(4-fluorophenyl)-6-oxo-1-phenyl-4,5,6,7-tetrahydro-1H-pyrazolo[3,4-b]pyridine-5-yl)-3-(trifluoromethyl)benzamide], the IC50 [1, 4] was 1000 to 3000 nM, the IC50 [1, 5] was 1000 to 3000 nM and the “% Adduct Formation” value (DCN1 protein) was “+ (MS Emax % adduct formation greater than or equal to 0.0 and less than or equal to 30.0)”. The EC50 ([2]; Homo sapiens, 240 h) was > 1 µM, the “Nanostring Ymax obs (%)” value [2] was “+ (Nanostring Ymax greater than or equal to 0.0 and less than or equal to 50.0)” and the IC50 ([3]; Homo sapiens, TF-1, 3 h) was 0.1 to 1 µM.
